The text below walks through data of patent US20240132431A1, “METHOD FOR ALKYLATING ACIDIC FUNCTIONAL GROUP” (Chugai Seiyaku Kabushiki Kaisha, priority 2021, published 2024).

This assay concerns the target T1, Bcl-2 protein (Recombinant Human Bcl-2 Protein) (Homo sapiens, UniProt P10415).
T1 construct: purchased Novus NBP2-34889
The experiment in a line: Binding evaluation of mixture library compounds to Bcl-2 using AS-MS (affinity selection mass spectrometry). The settings on record: for ASMS ratio (%) n = 1 / ASMS ratio (%) n = 2: AS-MS, mixture library, Bcl-2, ASMS Ratio(%)=(A−C)/B×100; for ASMS ratio (%) n = 1: replicate n = 1; for ASMS ratio (%) n = 2: replicate n = 2. The gist of the method:
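Readout is ASMS Ratio (%), (A−C)/B×100, from reversed-phase LC/MS of SEC-passed extracts, with protein-free unfiltered standard (B) and protein-free SEC blank (C). Recombinant human Bcl-2 at 20 μM final met ~1200 pooled compounds at […] each for 1 h, 23° C., dark, in Tris-HCl pH 7.4 buffer.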

Structures are written as SMILES.

T1 sequence (P10415 whole entry): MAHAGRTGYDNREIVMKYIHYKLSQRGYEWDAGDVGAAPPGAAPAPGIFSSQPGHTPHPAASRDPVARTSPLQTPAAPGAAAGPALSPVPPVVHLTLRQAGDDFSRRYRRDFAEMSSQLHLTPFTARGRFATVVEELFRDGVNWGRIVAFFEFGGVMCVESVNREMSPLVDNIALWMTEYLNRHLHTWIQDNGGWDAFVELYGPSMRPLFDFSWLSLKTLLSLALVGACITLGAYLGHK

`CCOc1cccc(-c2cc(OC)c(CN3CCN(c4ccc(C(=O)NS(=O)(=O)c5ccc(NCCSc6ccccc6)c([N+](=O)[O-])c5)nn4)CC3)c(OC)c2)c1` [B2Q085-01, 6-[4-[[4-(3-Ethoxyphenyl)-2,6-dimethoxyphenyl]methyl]piperazin-1-yl]-N-[3-nitro-4-(2-phenylsulfanylethylamino)phenyl]sulfonylpyridazine-3-carboxamide]: the “ASMS ratio (%) n = 1” value amounted to 14.9% and the “ASMS ratio (%) n = 2” value stood at 0.7%.

As for `CCOc1cncc(-c2cc(OC)c(CN3CCN(c4ccc(C(=O)NS(=O)(=O)c5ccc(NCCSc6ccccc6)c([N+](=O)[O-])c5)nn4)CC3)c(OC)c2)c1` [B2Q086-01, 6-[4-[[4-(5-Ethoxypyridin-3-yl)-2,6-dimethoxyphenyl]methyl]piperazin-1-yl]-N-[3-nitro-4-(2-phenylsulfanylethylamino)phenyl]sulfonylpyridazine-3-carboxamide], the “ASMS ratio (%) n = 1” value is −39.4% and the “ASMS ratio (%) n = 2” value was found to be 0.0%.

Turning to `CCOc1cccc(-c2cc(CN3CCN(c4ccc(C(=O)NS(=O)(=O)c5ccc(NCCSc6ccccc6)c([N+](=O)[O-])c5)nn4)CC3)cc(C(F)(F)F)c2)c1` [B2Q087-01, 6-[4-[[3-(3-Ethoxyphenyl)-5-(trifluoromethyl)phenyl]methyl]piperazin-1-yl]-N-[3-nitro-4-(2-phenylsulfanylethylamino)phenyl]sulfonylpyridazine-3-carboxamide], the “ASMS ratio (%) n = 1” value turned out to be 17.6% and the “ASMS ratio (%) n = 2” value is −2.1%.

Regarding `CCOc1cncc(-c2cc(CN3CCN(c4ccc(C(=O)NS(=O)(=O)c5ccc(NCCSc6ccccc6)c([N+](=O)[O-])c5)nn4)CC3)cc(C(F)(F)F)c2)c1` [B2Q088-01, 6-[4-[[3-(5-Ethoxypyridin-3-yl)-5-(trifluoromethyl)phenyl]methyl]piperazin-1-yl]-N-[3-nitro-4-(2-phenylsulfanylethylamino)phenyl]sulfonylpyridazine-3-carboxamide], the “ASMS ratio (%) n = 1” value is 13.8% and the “ASMS ratio (%) n = 2” value was 9.1%.

Consider `CCOc1cccc(-c2cc(CN3CCN(c4ccc(C(=O)NS(=O)(=O)c5ccc(NCCSc6ccccc6)c([N+](=O)[O-])c5)nn4)CC3)cc(OC(F)(F)F)c2)c1` [B2Q089-01, 6-[4-[[3-(3-Ethoxyphenyl)-5-(trifluoromethoxy)phenyl]methyl]piperazin-1-yl]-N-[3-nitro-4-(2-phenylsulfanylethylamino)phenyl]sulfonylpyridazine-3-carboxamide], for which the “ASMS ratio (%) n = 1” value is given as 25.0% and the “ASMS ratio (%) n = 2” value is listed as 15.0%.

On to `CCOc1cncc(-c2cc(CN3CCN(c4ccc(C(=O)NS(=O)(=O)c5ccc(NCCSc6ccccc6)c([N+](=O)[O-])c5)nn4)CC3)cc(OC(F)(F)F)c2)c1` [B2Q090-01, 6-[4-[[3-(5-Ethoxypyridin-3-yl)-5-(trifluoromethoxy)phenyl]methyl]piperazin-1-yl]-N-[3-nitro-4-(2-phenylsulfanylethylamino)phenyl]sulfonylpyridazine-3-carboxamide], for which the “ASMS ratio (%) n = 1” value is 21.8% and the “ASMS ratio (%) n = 2” value stood at 13.2%.

Consider `CCOc1cccc(-c2ccc(CN3CCN(c4ccc(C(=O)NS(=O)(=O)c5ccc(NCCSc6ccccc6)c([N+](=O)[O-])c5)nn4)CC3)c3ccccc23)c1` [B2Q091-01, 6-[4-[[4-(3-Ethoxyphenyl)naphthalen-1-yl]methyl]piperazin-1-yl]-N-[3-nitro-4-(2-phenylsulfanylethylamino)phenyl]sulfonylpyridazine-3-carboxamide], for which the “ASMS ratio (%) n = 1” value is 17.2% and the “ASMS ratio (%) n = 2” value is on record as −5.0%.

`CCOc1cncc(-c2ccc(CN3CCN(c4ccc(C(=O)NS(=O)(=O)c5ccc(NCCSc6ccccc6)c([N+](=O)[O-])c5)nn4)CC3)c3ccccc23)c1` [B2Q092-01]: the “ASMS ratio (%) n = 1” value came out at 10.4% and the “ASMS ratio (%) n = 2” value is recorded as 4.8%.

For `CCOc1cncc(-c2csc(CN3CCN(c4ccc(C(=O)NS(=O)(=O)c5ccc(NCCSc6ccccc6)c([N+](=O)[O-])c5)nn4)CC3)c2)c1` [B2Q094-01, 6-[4-[[4-(5-Ethoxypyridin-3-yl)thiophen-2-yl]methyl]piperazin-1-yl]-N-[3-nitro-4-(2-phenylsulfanylethylamino)phenyl]sulfonylpyridazine-3-carboxamide], the “ASMS ratio (%) n = 1” value was 7.2% and the “ASMS ratio (%) n = 2” value was found to be 2.5%.

For `CCOc1cccc(C#Cc2ccccc2CN2CCN(c3ccc(C(=O)NS(=O)(=O)c4ccc(NCCSc5ccccc5)c([N+](=O)[O-])c4)nn3)CC2)c1` [B2Q095-01], the “ASMS ratio (%) n = 1” value was 19.9% and the “ASMS ratio (%) n = 2” value was determined as 11.9%.

Take `CCOc1cccc(-c2ccc(C(C)N3CCN(c4ccc(C(=O)NS(=O)(=O)c5ccc(NCCSc6ccccc6)c([N+](=O)[O-])c5)cc4)CC3)c(F)c2)c1` (centres unmarked) [B2Q099-01, 4-[4-[1-[4-(3-Ethoxyphenyl)-2-fluorophenyl]ethyl]piperazin-1-yl]-N-[3-nitro-4-(2-phenylsulfanylethylamino)phenyl]sulfonylbenzamide]: the “ASMS ratio (%) n = 2” value was found to be 0.0%.

In the case of `CCOc1cncc(-c2ccc(C(C)N3CCN(c4ccc(C(=O)NS(=O)(=O)c5ccc(NCCSc6ccccc6)c([N+](=O)[O-])c5)cc4)CC3)c(F)c2)c1` (centres unmarked) [B2Q100-01, 4-[4-[1-[4-(5-Ethoxypyridin-3-yl)-2-fluorophenyl]ethyl]piperazin-1-yl]-N-[3-nitro-4-(2-phenylsulfanylethylamino)phenyl]sulfonylbenzamide], the “ASMS ratio (%) n = 1” value was 0.0% and the “ASMS ratio (%) n = 2” value was determined as 10.7%.

`CCOc1cncc(-c2csc(C(=O)N3CCN(c4ccc(C(=O)NS(=O)(=O)c5ccc(NCCSc6ccccc6)c(C(F)(F)F)c5)nn4)CC3)c2)c1` [B2R002-01, 6-[4-[4-(5-Ethoxypyridin-3-yl)thiophene-2-carbonyl]piperazin-1-yl]-N-[4-(2-phenylsulfanylethylamino)-3-(trifluoromethyl)phenyl]sulfonylpyridazine-3-carboxamide]: the “ASMS ratio (%)” value by setting is: (n = 1) 0.0%; (n = 2) 0.0%.

Consider `CCOc1cccc(-c2ccc(C(=O)N3CCN(c4ccc(C(=O)NS(=O)(=O)c5ccc(NCCSc6ccccc6)c(C(F)(F)F)c5)nn4)CC3)cc2C)c1` [B2R003-01, 6-[4-[4-(3-Ethoxyphenyl)-3-methylbenzoyl]piperazin-1-yl]-N-[4-(2-phenylsulfanylethylamino)-3-(trifluoromethyl)phenyl]sulfonylpyridazine-3-carboxamide], for which the “ASMS ratio (%)” value reads like this: (n = 1) 21.6%; (n = 2) 0.0%.

For the molecule `CCOc1cncc(-c2ccc(C(=O)N3CCN(c4ccc(C(=O)NS(=O)(=O)c5ccc(NCCSc6ccccc6)c(C(F)(F)F)c5)nn4)CC3)cc2C)c1` [B2R004-01, 6-[4-[4-(5-Ethoxypyridin-3-yl)-3-methylbenzoyl]piperazin-1-yl]-N-[4-(2-phenylsulfanylethylamino)-3-(trifluoromethyl)phenyl]sulfonylpyridazine-3-carboxamide], the “ASMS ratio (%)” value is, setting by setting: (n = 1) 0.0%; (n = 2) 0.0%.

Take `CCOc1cccc(-c2ccc(C(=O)N3CCN(c4ccc(C(=O)NS(=O)(=O)c5ccc(NCCSc6ccccc6)c(C(F)(F)F)c5)nn4)CC3)cc2F)c1` [B2R005-01, 6-[4-[4-(3-ethoxyphenyl)-3-fluorobenzoyl]piperazin-1-yl]-N-[4-(2-phenylsulfanylethylamino)-3-(trifluoromethyl)phenyl]sulfonylpyridazine-3-carboxamide]: the “ASMS ratio (%)” value runs as follows: (n = 1) 44.0%; (n = 2) 39.5%.

Regarding `CCOc1cccc(C#Cc2ccccc2C(=O)N2CCN(c3ccc(C(=O)NS(=O)(=O)c4ccc(NCCSc5ccccc5)c(C(F)(F)F)c4)nn3)CC2)c1` [B2R007-01, 6-[4-[2-[2-(3-Ethoxyphenyl)ethynyl]benzoyl]piperazin-1-yl]-N-[4-(2-phenylsulfanylethylamino)-3-(trifluoromethyl)phenyl]sulfonylpyridazine-3-carboxamide], the “ASMS ratio (%)” value (n = 1) worked out at 0.0%.

On to `CCOc1cncc(C#Cc2ccccc2C(=O)N2CCN(c3ccc(C(=O)NS(=O)(=O)c4ccc(NCCSc5ccccc5)c(C(F)(F)F)c4)nn3)CC2)c1` [B2R008-01, 6-[4-[2-[2-(5-Ethoxypyridin-3-yl)ethynyl]benzoyl]piperazin-1-yl]-N-[4-(2-phenylsulfanylethylamino)-3-(trifluoromethyl)phenyl]sulfonylpyridazine-3-carboxamide], for which the “ASMS ratio (%)” value was determined as 0.0% (n = 1) and 19.5% (n = 2).

As for `CCOc1cccc(C#Cc2cncc(C(=O)N3CCN(c4ccc(C(=O)NS(=O)(=O)c5ccc(NCCSc6ccccc6)c(C(F)(F)F)c5)nn4)CC3)c2)c1` [B2R009-01, 6-[4-[5-[2-(3-Ethoxyphenyl)ethynyl]pyridine-3-carbonyl]piperazin-1-yl]-N-[4-(2-phenylsulfanylethylamino)-3-(trifluoromethyl)phenyl]sulfonylpyridazine-3-carboxamide], the “ASMS ratio (%)” value (n = 1) was found to be 0.0% and the “ASMS ratio (%)” value (n = 2) was determined as 19.5%.

For `CCOc1cncc(C#Cc2cncc(C(=O)N3CCN(c4ccc(C(=O)NS(=O)(=O)c5ccc(NCCSc6ccccc6)c(C(F)(F)F)c5)nn4)CC3)c2)c1` [B2R010-01, 6-[4-[5-[2-(5-Ethoxypyridin-3-yl)ethynyl]pyridine-3-carbonyl]piperazin-1-yl]-N-[4-(2-phenylsulfanylethylamino)-3-(trifluoromethyl)phenyl]sulfonylpyridazine-3-carboxamide], the “ASMS ratio (%)” value was found to be 0.0% (n = 1) and 0.0% (n = 2).
